# Measurements as given in patent publication US6110955A, “Metabolically stabilized oxyalkylene esters and uses thereof” (Beacon Laboratories, Inc., priority 1997, dated 2000).
# Entries after “also recorded” stand apart in the source; their conditions may differ.
# Columns and labels:
# [1] = system: nuclear deacetylase(s); details: cited from earlier work
# [2] = system: B16 melanoma; details: cited from earlier work
# [3] = system: cancer patients; details: clinical trials; cited from earlier work
# [4] = system: IMR-32; assay: Clonogenicity in soft agar (growth inhibition); assay type: cell-based, human
# Method: (§1) Inhibition of cancer cell growth in agar culture--clonogenicity was tested using cell lines as follows:
# (§2) Cells were harvested, washed in complete media, and counted.
# (§3) After overnight culture, AB or α-methyl-4-(2-methylpropyl)-benzeneacetyloxymethyl butyrate was added at the indicated concentration. The control cells received media alone.
# [5] = system: LA1-5S; assay: Clonogenicity in soft agar (growth inhibition); assay type: cell-based, human
# Method: as §1, §2, §3
# [6] = system: NBAS-5; assay: Clonogenicity in soft agar (growth inhibition); assay type: cell-based, human
# Method: as §1, §2, §3
# [7] = system: NBL-S; assay: Clonogenicity in soft agar (growth inhibition); assay type: cell-based, human
# Method: as §1, §2, §3
# [8] = system: NBL-W-N; assay: Clonogenicity in soft agar (growth inhibition); assay type: cell-based, human
# Method: as §1, §2, §3
# [9] = system: NGP; assay: Clonogenicity in soft agar (growth inhibition); assay type: cell-based, human
# Method: as §1, §2, §3
# [10] = system: SK-N-MC; assay: Clonogenicity in soft agar (growth inhibition); assay type: cell-based, human
# Method: as §1, §2, §3
# [11] = system: SK-N-SH; assay: Clonogenicity in soft agar (growth inhibition); assay type: cell-based, human
# Method: as §1, §2, §3
# [12] = system: SMS-KAN; assay: Clonogenicity in soft agar (growth inhibition); assay type: cell-based, human
# Method: as §1, §2, §3
# [13] = system: SMS-KCN; assay: Clonogenicity in soft agar (growth inhibition); assay type: cell-based, human
# Method: as §1, §2, §3
# [14] = system: human neuroblastoma cell lines; assay: Clonogenicity across the neuroblastoma cell lines (summary); assay type: cell-based
# Method: as §1, §2, §3
# [15] = system: CFPAC; assay: Inhibition of cancer cell growth, sulforhodamine B (SRB) method; assay type: cell-based; details: Homo sapiens
# Method: (§4) Inhibition of cancer cell growth was measured by the sulforhodamine B (SRB) method as described by Monks et al., J. Nat. Canc. Inst., (1991), 83: 757-766, incorporated herein in its entirety. The SRB assay is recognized by the National Institute for Cancer (NCI) as a reliable screen for anticancer drugs and is used by the NCI for this purpose. […] (FIGS. 3A-3D).
# [16] = system: LOX IMVI; assay: as above; assay type: cell-based; details: Homo sapiens
# Method: as §4
# [17] = system: MCF7; assay: as above; assay type: cell-based; details: Homo sapiens
# Method: as §4
# [18] = system: OVCAR-5; assay: as above; assay type: cell-based; details: Homo sapiens
# Method: as §4
# [19] = system: human pancreatic, ovarian, breast carcinoma and melanoma cell lines; assay: Inhibition of cancer cell growth, SRB method (summary over cell lines); assay type: cell-based; details: compared with AB
# Method: as §4
# [20] = In vitro stability in human blood; assay type: in vitro ADME; details: whole human blood, radiolabelled, read-out: calculated half time
# Method: Radiolabelled Compound 1 (5 μCi) was added to 1 mL of whole human blood and allowed to stand for various times. The samples were quenched with acetonitrile and prepared as previously described.
# [21] = system: human colon carcinoma, leukemia and retinoblastoma cell lines; details: in vitro; cited from earlier work
# [22] = system: primary and immortalized cell lines; details: cited from earlier work
# [23] = system: mitochondrial β-oxidation of fatty acids; details: cited from earlier work
smiles,measurement,setting,value
"CCCC(=O)O [BA, Butyric acid]",effect on nuclear deacetylase(s),[1],"inhibition of nuclear deacetylase(s), resulting in hyperacetylation of histones H3 and H4"
same,oncogene expression,[2],decrease in the expression of c-myc and H-ras oncogenes in B16 melanoma
same,efficacy in cancer patients,[3],minimal or transient efficacy
"CCCC(=O)OCOC(=O)C(C)c1ccc(CC(C)C)cc1 (stereo not drawn) [Compound 1, α-methyl-4-(2-methylpropyl)-benzeneacetyloxymethyl butyrate]",IC50,"[4]; Homo sapiens, IMR-32",15 µM
same,IC90,"[4]; Homo sapiens, IMR-32",32 µM
same,activity at 10 µM,"[4]; Homo sapiens, IMR-32, 10 μM, read-out: clones relative to media-treated control cultures",71 ± 10%
same,activity at 20 µM,"[4]; Homo sapiens, IMR-32, 20 μM, read-out: clones relative to media-treated control cultures",46 ± 8%
same,activity at 50 µM,"[4]; Homo sapiens, IMR-32, 50 μM, read-out: clones relative to media-treated control cultures",3 ± 1%
same,activity at 100 µM,"[4]; Homo sapiens, IMR-32, 100 μM, read-out: clones relative to media-treated control cultures",0%
same,activity at 250 µM,"[4]; Homo sapiens, IMR-32, 250 μM, read-out: clones relative to media-treated control cultures",0%
same,AB/Compound 1 (IC50 ratio),[4]; IMR-32,59
same,AB/Compound 1 (IC90 ratio),[4]; IMR-32,111437
same,AB/Compound 1 (IC50 ratio),[5],56
same,AB/Compound 1 (IC90 ratio),[5],31.8
same,IC50,[5]; Homo sapiens,29 µM
same,IC90,[5]; Homo sapiens,84 µM
same,IC50,"[6]; Homo sapiens, NBAS-5",15 µM
same,IC90,"[6]; Homo sapiens, NBAS-5",30 µM
same,activity at 10 µM,"[6]; Homo sapiens, NBAS-5, 10 μM, read-out: clones relative to media-treated control cultures",76 ± 7%
same,activity at 20 µM,"[6]; Homo sapiens, NBAS-5, 20 μM, read-out: clones relative to media-treated control cultures",27 ± 15%
same,activity at 50 µM,"[6]; Homo sapiens, NBAS-5, 50 μM, read-out: clones relative to media-treated control cultures",3%
same,activity at 100 µM,"[6]; Homo sapiens, NBAS-5, 100 μM, read-out: clones relative to media-treated control cultures",0%
same,activity at 250 µM,"[6]; Homo sapiens, NBAS-5, 250 μM, read-out: clones relative to media-treated control cultures",0%
same,AB/Compound 1 (IC50 ratio),[6]; NBAS-5,55.53
same,AB/Compound 1 (IC90 ratio),[6]; NBAS-5,434
same,AB/Compound 1 (IC50 ratio),[7],29.2
same,AB/Compound 1 (IC90 ratio),[7],32.8
same,IC50,[7]; Homo sapiens,24 µM
same,IC90,[7]; Homo sapiens,61 µM
same,AB/Compound 1 (IC50 ratio),[8],10.6
same,AB/Compound 1 (IC90 ratio),[8],22.9
same,IC50,[8]; Homo sapiens,46 µM
same,IC90,[8]; Homo sapiens,134 µM
same,AB/Compound 1 (IC50 ratio),[9],67.9
same,AB/Compound 1 (IC90 ratio),[9],18.46
same,IC50,[9]; Homo sapiens,15 µM
same,IC90,[9]; Homo sapiens,87 µM
same,AB/Compound 1 (IC50 ratio),[10],9
same,AB/Compound 1 (IC90 ratio),[10],887
same,IC50,[10]; Homo sapiens,24 µM
same,IC90,[10]; Homo sapiens,148 µM
same,AB/Compound 1 (IC50 ratio),[11],63.37
same,AB/Compound 1 (IC90 ratio),[11],87
same,IC50,[11]; Homo sapiens,16 µM
same,IC90,[11]; Homo sapiens,39 µM
same,activity at 10 µM,"[11]; Homo sapiens, 10 μM, read-out: clones relative to media-treated control cultures",66%
same,activity at 20 µM,"[11]; Homo sapiens, 20 μM, read-out: clones relative to media-treated control cultures",50%
same,activity at 50 µM,"[11]; Homo sapiens, 50 μM, read-out: clones relative to media-treated control cultures",5%
same,activity at 100 µM,"[11]; Homo sapiens, 100 μM, read-out: clones relative to media-treated control cultures",1%
same,activity at 250 µM,"[11]; Homo sapiens, 250 μM, read-out: clones relative to media-treated control cultures",0%
same,AB/Compound 1 (IC50 ratio),[12],14.7
same,AB/Compound 1 (IC90 ratio),[12],7.2
same,IC50,[12]; Homo sapiens,77 µM
same,IC90,[12]; Homo sapiens,289 µM
same,AB/Compound 1 (IC50 ratio),[13],15.86
same,IC50,[13]; Homo sapiens,118 µM
same,inhibition of clonogenicity (in words),[14],dose-dependent manner
same,sensitivity / potency relative to AB (in words),[14]; compared with AB,mostly an order of magnitude more sensitive; also recorded: significantly more potent tumor cell clonogenicity inhibitor than AB
same,"ratio between the IC50 of AB/Compound 1, ""maiden"" value",[14]; over the cell lines,16
same,"ratio between the IC50 of AB/Compound 1, range",[14]; over the cell lines,7-63 fold
same,"ratio between the IC90 of AB/Compound 1, ""maiden"" value",[14]; over the cell lines,32
same,"ratio between the IC90 of AB/Compound 1, range",[14]; over the cell lines,7-434
same,inhibition at 31.25 pM,[15]; dosage 0.03125 nM,0%
same,inhibition at 62.5 pM,[15]; dosage 0.06250 nM,0.1%
same,inhibition at 0.000125 µM,[15]; dosage 0.12500 nM,1.1%
same,inhibition at 0.00025 µM,[15]; dosage 0.25000 nM,0%
same,inhibition at 0.0005 µM,[15]; dosage 0.50000 nM,93.3%
same,inhibition at 0.001 µM,[15]; dosage 1.00000 nM,94.9%
same,inhibition at 0.002 µM,[15]; dosage 2.00000 nM,96%
same,inhibition at 0.004 µM,[15]; dosage 4.00000 nM,97.4%
same,inhibition at 31.25 pM,[16]; dosage 0.03125 nM,0%
same,inhibition at 62.5 pM,[16]; dosage 0.06250 nM,0.1%
same,inhibition at 0.000125 µM,[16]; dosage 0.12500 nM,1.5%
same,inhibition at 0.00025 µM,[16]; dosage 0.25000 nM,0%
same,inhibition at 0.001 µM,[16]; dosage 1.00000 nM,94.9%
same,inhibition at 0.002 µM,[16]; dosage 2.00000 nM,96%
same,inhibition at 0.004 µM,[16]; dosage 4.00000 nM,97.4%
same,inhibition at 31.25 pM,"[17]; MCF7, dosage 0.03125 nM",0%
same,inhibition at 62.5 pM,"[17]; MCF7, dosage 0.06250 nM",0%
same,inhibition at 0.000125 µM,"[17]; MCF7, dosage 0.12500 nM",0%
same,inhibition at 0.00025 µM,"[17]; MCF7, dosage 0.25000 nM",1.1%
same,inhibition at 0.0005 µM,"[17]; MCF7, dosage 0.50000 nM",57.8%
same,inhibition at 0.001 µM,"[17]; MCF7, dosage 1.00000 nM",99.3%
same,inhibition at 0.002 µM,"[17]; MCF7, dosage 2.00000 nM",98.9%
same,inhibition at 0.004 µM,"[17]; MCF7, dosage 4.00000 nM",98.7%
same,inhibition at 31.25 pM,"[18]; OVCAR-5, dosage 0.03125 nM",0%
same,inhibition at 62.5 pM,"[18]; OVCAR-5, dosage 0.06250 nM",0.3%
same,inhibition at 0.000125 µM,"[18]; OVCAR-5, dosage 0.12500 nM",0.5%
same,inhibition at 0.00025 µM,"[18]; OVCAR-5, dosage 0.25000 nM",0%
same,inhibition at 0.0005 µM,"[18]; OVCAR-5, dosage 0.50000 nM",0.9%
same,inhibition at 0.001 µM,"[18]; OVCAR-5, dosage 1.00000 nM",39.7%
same,inhibition at 0.002 µM,"[18]; OVCAR-5, dosage 2.00000 nM",99.8%
same,inhibition at 0.004 µM,"[18]; OVCAR-5, dosage 4.00000 nM",95.1%
same,greater activity than that of AB,[19],at least 100 fold
same,half-life,[20],~20.8 min
"CCCC(=O)[O-].[Na+] [SB, sodium butyrate]",apoptosis,[21],"produce apoptosis in vitro in human colon carcinoma, leukemia and retinoblastoma cell lines"
CCCC(=O)OCC(COC(=O)CCC)OC(=O)CCC [Tributyrin],expression of a reporter gene,[22],enhance the expression of a reporter gene in primary and immortalized cell lines
O=C(O)CCCCCCNC1c2ccccc2CCc2ccccc21 [aminetepine],mitochondrial β-oxidation of fatty acids,[23],decrease mitochondrial β-oxidation of fatty acids
CC(C)Cc1ccc(C(C)C(=O)O)cc1 (stereo not shown) [ibuprofen],mitochondrial β-oxidation of fatty acids,[23],decrease mitochondrial β-oxidation of fatty acids
O=C(O)c1ccccc1O [salicylic acid],mitochondrial β-oxidation of fatty acids,[23],decrease mitochondrial β-oxidation of fatty acids
CN(C)C1C(=O)C(C(N)=O)=C(O)C2(O)C(=O)C3=C(O)c4c(O)cccc4C(C)(O)C3CC12 (stereo not shown) [tetracycline],mitochondrial β-oxidation of fatty acids,[23],decrease mitochondrial β-oxidation of fatty acids
CN1c2ccccc2C(NCCCCCCC(=O)O)c2ccc(Cl)cc2S1(=O)=O (stereo not shown) [tianeptine],mitochondrial β-oxidation of fatty acids,[23],decrease mitochondrial β-oxidation of fatty acids
CCCC(CCC)C(=O)O [valproic acid],mitochondrial β-oxidation of fatty acids,[23],decrease mitochondrial β-oxidation of fatty acids
